BindingDB's records for doi:10.1016/s0024-3205(97)00885-0 (Eli Lilly, 1997)

Columns and labels:
[1] = molecular target: 5-hydroxytryptamine receptor 2B (Homo sapiens, UniProt P41595)
D(1A) dopamine receptor = D(1A) dopamine receptor (Rattus norvegicus, UniProt P18901)
[2] = molecular target: T1, Alpha-2C adrenergic receptor (Rattus norvegicus, UniProt P22086)
T1 sequence (P22086 whole entry): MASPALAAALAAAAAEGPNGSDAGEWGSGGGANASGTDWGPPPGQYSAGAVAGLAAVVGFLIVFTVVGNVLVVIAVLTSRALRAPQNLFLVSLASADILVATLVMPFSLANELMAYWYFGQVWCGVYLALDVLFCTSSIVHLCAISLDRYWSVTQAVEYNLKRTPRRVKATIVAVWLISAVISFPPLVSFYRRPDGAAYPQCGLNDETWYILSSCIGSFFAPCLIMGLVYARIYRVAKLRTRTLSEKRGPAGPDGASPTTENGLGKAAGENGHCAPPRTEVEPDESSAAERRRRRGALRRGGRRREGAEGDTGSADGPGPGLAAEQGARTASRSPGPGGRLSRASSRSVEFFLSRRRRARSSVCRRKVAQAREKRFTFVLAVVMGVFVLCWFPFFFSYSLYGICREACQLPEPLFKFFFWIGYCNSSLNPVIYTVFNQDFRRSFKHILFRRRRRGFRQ

[3] = molecular target: Beta-2 adrenergic receptor (Rattus norvegicus, UniProt P10608)
D(2) dopamine receptor = D(2) dopamine receptor (Rattus norvegicus, UniProt P61169)
[4] = molecular target: T2, 5-hydroxytryptamine receptor 1F (Homo sapiens, UniProt P30939)
T2 sequence (P30939 whole entry): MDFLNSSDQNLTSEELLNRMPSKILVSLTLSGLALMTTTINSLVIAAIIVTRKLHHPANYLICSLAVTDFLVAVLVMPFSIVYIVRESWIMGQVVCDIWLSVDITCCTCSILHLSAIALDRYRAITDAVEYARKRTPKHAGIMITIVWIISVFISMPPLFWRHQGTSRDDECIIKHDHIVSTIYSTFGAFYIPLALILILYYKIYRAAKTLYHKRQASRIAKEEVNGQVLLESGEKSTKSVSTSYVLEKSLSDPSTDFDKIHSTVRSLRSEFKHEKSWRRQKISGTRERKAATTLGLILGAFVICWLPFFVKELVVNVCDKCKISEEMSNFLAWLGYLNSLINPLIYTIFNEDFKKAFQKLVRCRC

[5] = molecular target: T3, 5-hydroxytryptamine receptor 2C (Homo sapiens, UniProt P28335)
T3 sequence (P28335 whole entry): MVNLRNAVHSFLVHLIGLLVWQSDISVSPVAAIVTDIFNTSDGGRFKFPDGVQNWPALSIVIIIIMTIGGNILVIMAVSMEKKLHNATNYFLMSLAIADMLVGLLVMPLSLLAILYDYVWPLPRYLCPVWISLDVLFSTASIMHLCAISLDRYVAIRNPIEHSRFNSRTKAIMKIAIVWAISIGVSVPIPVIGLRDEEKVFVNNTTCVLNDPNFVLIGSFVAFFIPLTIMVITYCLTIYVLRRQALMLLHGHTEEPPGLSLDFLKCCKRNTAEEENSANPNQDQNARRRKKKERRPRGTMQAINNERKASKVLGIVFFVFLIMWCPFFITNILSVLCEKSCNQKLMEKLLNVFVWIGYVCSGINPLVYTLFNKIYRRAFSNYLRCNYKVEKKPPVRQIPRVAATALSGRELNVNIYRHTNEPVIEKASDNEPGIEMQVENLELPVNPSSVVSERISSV

[6] = molecular target: 5-hydroxytryptamine receptor 7 (Homo sapiens, UniProt P34969)
[7] = molecular target: T4, Muscarinic acetylcholine receptor M2 (Rattus norvegicus, UniProt P10980)
T4 sequence (P10980 whole entry): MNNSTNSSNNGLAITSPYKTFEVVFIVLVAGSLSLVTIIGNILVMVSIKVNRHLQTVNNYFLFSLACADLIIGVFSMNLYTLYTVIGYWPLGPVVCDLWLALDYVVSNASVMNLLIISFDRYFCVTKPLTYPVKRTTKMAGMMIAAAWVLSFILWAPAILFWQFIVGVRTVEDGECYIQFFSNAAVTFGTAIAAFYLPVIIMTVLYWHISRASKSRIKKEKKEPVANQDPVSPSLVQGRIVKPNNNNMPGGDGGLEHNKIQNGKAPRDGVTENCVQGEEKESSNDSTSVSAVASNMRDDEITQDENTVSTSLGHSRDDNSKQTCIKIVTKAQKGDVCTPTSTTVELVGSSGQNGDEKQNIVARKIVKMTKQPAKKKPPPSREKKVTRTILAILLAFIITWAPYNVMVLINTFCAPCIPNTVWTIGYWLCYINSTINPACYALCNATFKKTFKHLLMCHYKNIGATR

Histamine H1 receptor = Histamine H1 receptor (Rattus norvegicus, UniProt P31390)
[8] = molecular target: 5-hydroxytryptamine receptor 1D (Homo sapiens, UniProt P28221)
[9] = molecular target: T5, Alpha-1A adrenergic receptor (Rattus norvegicus, UniProt P43140)
T5 sequence (P43140 whole entry): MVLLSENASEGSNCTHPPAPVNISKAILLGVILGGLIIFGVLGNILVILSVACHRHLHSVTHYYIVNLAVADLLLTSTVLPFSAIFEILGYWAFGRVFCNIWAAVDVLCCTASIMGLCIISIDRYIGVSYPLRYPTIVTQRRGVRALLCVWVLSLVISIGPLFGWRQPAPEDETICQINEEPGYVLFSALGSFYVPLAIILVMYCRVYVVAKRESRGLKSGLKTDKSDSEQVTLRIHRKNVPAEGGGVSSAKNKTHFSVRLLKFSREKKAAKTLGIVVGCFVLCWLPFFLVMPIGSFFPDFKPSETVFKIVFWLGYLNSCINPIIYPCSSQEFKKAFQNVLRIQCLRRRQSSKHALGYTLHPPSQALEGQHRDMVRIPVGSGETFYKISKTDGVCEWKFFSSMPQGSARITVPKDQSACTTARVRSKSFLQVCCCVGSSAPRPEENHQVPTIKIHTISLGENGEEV

[10] = molecular target: Gamma-aminobutyric acid receptor subunit alpha-1 (Rattus norvegicus, UniProt P62813)
[11] = molecular target: 5-hydroxytryptamine receptor 2A (Homo sapiens, UniProt P28223)
Sequence of 5-hydroxytryptamine receptor 2A (P28223 whole entry): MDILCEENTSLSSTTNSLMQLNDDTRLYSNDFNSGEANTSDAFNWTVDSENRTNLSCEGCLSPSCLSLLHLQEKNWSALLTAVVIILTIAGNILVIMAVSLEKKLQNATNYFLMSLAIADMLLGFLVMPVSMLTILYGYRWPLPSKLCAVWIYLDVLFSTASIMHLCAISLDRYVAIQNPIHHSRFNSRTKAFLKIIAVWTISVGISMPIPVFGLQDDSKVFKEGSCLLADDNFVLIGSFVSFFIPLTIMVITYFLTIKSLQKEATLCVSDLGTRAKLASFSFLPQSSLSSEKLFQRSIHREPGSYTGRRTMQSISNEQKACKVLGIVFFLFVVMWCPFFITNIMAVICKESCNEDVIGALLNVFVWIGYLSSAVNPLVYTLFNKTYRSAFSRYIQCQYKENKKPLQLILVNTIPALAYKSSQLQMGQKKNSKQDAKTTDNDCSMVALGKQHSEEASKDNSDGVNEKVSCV

Sequence of 5-hydroxytryptamine receptor 7 (P34969 whole entry): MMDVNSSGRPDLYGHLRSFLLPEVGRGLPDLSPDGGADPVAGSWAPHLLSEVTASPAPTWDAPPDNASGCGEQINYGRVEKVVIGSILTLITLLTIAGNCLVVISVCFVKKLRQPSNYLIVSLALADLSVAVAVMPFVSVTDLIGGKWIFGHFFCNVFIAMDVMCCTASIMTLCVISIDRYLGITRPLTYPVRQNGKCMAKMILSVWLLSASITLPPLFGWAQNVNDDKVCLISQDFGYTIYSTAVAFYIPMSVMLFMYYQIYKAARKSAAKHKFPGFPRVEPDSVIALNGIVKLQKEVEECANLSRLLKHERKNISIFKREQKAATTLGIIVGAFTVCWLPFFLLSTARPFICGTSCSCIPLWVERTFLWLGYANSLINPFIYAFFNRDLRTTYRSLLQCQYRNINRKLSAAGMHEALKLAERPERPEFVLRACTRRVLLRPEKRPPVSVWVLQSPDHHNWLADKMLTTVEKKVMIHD
Sequence of 5-hydroxytryptamine receptor 1D (P28221 whole entry): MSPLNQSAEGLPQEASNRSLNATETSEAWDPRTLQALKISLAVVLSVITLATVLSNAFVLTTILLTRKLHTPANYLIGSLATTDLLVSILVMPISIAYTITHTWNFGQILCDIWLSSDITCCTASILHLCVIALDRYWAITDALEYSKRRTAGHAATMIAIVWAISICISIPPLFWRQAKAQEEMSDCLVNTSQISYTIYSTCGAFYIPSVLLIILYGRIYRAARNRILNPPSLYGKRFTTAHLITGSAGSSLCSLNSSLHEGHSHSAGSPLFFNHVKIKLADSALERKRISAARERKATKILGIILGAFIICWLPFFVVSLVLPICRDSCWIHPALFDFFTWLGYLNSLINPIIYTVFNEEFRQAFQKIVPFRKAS
Sequence of Histamine H1 receptor (P31390 whole entry): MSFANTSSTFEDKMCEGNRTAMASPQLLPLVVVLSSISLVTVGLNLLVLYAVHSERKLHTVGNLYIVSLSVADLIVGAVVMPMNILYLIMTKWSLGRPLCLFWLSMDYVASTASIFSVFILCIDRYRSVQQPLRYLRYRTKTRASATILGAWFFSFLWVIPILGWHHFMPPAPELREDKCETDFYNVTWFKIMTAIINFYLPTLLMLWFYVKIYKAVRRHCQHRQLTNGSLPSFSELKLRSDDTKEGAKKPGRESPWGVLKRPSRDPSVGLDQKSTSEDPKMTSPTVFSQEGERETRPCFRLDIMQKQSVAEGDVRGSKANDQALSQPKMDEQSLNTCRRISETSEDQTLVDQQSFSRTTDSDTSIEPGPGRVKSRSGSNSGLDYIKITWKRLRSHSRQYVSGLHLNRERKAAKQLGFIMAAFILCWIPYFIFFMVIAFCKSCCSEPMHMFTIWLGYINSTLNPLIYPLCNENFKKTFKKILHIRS
Sequence of D(1A) dopamine receptor (P18901 whole entry): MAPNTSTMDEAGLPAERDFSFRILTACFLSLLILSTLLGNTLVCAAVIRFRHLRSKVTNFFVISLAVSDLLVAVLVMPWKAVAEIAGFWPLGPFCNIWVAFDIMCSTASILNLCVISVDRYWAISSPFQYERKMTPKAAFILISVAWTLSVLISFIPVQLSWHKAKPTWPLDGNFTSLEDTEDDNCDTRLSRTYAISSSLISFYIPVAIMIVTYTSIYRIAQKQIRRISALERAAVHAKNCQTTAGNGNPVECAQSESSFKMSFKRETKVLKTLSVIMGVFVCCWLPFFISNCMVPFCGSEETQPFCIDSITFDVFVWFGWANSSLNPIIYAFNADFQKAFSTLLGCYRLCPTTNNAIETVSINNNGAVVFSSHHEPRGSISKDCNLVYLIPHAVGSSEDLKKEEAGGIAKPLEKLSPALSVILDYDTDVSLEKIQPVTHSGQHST
Sequence of Beta-2 adrenergic receptor (P10608 whole entry): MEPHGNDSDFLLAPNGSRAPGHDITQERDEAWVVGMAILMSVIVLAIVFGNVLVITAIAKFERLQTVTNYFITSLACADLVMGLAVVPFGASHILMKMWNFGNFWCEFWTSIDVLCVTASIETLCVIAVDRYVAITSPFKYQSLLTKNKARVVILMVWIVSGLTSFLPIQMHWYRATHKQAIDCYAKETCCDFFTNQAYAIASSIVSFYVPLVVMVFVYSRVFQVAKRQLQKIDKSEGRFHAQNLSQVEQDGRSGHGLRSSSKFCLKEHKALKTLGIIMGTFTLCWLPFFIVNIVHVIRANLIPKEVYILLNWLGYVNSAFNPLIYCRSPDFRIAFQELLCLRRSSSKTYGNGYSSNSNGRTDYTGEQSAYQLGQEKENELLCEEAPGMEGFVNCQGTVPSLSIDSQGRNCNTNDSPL
Sequence of Gamma-aminobutyric acid receptor subunit alpha-1 (P62813 whole entry): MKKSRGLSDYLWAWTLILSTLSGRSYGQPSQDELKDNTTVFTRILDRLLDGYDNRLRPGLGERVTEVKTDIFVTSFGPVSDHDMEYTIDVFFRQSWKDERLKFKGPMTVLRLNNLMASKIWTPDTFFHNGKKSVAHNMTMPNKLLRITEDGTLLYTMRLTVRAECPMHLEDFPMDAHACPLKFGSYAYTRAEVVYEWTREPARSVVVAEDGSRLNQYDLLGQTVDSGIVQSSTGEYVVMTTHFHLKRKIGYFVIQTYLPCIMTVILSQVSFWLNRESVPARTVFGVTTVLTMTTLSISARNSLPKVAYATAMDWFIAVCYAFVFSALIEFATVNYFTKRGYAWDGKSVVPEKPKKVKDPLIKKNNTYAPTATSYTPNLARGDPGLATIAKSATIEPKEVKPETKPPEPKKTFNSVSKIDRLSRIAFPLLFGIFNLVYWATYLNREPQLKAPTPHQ
Sequence of 5-hydroxytryptamine receptor 2B (P41595 whole entry): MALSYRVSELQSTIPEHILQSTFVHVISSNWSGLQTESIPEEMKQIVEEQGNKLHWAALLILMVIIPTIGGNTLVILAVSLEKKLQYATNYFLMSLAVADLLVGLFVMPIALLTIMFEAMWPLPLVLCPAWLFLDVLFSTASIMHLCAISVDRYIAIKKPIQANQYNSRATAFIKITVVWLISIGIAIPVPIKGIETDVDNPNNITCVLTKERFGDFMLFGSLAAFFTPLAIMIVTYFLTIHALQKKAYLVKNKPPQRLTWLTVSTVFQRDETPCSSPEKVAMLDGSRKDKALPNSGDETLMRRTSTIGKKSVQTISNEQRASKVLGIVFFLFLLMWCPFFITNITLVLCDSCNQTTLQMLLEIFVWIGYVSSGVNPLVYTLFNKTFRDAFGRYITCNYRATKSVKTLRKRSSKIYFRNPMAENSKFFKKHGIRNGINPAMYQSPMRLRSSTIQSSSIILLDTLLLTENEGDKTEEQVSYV
Sequence of D(2) dopamine receptor (P61169 whole entry): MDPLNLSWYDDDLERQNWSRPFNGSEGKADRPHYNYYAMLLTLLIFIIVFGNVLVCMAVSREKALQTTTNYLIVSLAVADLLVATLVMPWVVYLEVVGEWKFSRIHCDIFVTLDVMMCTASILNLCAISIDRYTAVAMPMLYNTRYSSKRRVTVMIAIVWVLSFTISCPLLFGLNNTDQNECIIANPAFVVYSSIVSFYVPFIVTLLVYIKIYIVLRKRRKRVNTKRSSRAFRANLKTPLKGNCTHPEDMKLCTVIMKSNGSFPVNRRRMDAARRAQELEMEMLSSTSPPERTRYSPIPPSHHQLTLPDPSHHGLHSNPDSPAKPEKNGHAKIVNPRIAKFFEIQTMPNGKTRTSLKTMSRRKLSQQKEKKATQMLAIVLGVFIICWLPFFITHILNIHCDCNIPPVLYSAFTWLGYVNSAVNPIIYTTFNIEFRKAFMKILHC

Ki [1]: 1.69 µM | Ki (D(1A) dopamine receptor): > 10 µM | Ki [2]: 3.69 µM | Ki [3]: > 10 µM | Ki (D(2) dopamine receptor): > 10 µM | Ki [4]: 0.006 µM | Ki [5]: 3.5 µM | Ki [6]: 4.85 µM | Ki [7]: > 10 µM | Ki (Histamine H1 receptor): > 10 µM | Ki [8]: 0.575 µM | Ki [9]: 5.06 µM | Ki [10]: > 10 µM | Ki [11]: 3.94 µM
Structure (SMILES): CN(C)C1CCc2[nH]c3ccc(NC(=O)c4ccc(F)cc4)cc3c2C1 (centres undefined) [NSC_5311097]
